From article PMC11235165, “Delocalized quinolinium-macrocyclic peptides, an atypical chemotype for CNS penetration” (Science Advances, 2024)
Read-outs that look alike come from different tables or passages of the source. Each block holds one molecule with its values, some of them ahead of it.

Experiments:
Cyclophilin A (CypA) = Cyclophilin A (CypA) (Homo sapiens, UniProt P62937); assay: Fluorescence polarization cyclophilin A binding assay
[1] = tested on: mitochondrial permeability transition pore (mPTP); assay: Calcium retention capacity (CRC) assay in isolated liver mitochondria; assay type: biochemical, rat; conditions: Table S4 / Fig. S2; rat liver mitochondria; 500 nM; (Treated-NonTreated)/NonTreated)*100
CypD = CypD (Homo sapiens, UniProt P30405); assay: Fluorescence polarization cyclophilin D binding assay
CypD, sequence (P30405 30-207): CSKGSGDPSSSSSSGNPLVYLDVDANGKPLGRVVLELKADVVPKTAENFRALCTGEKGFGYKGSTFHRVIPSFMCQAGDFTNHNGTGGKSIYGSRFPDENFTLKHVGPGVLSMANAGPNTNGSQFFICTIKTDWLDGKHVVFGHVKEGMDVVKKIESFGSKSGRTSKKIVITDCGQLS

hERG = hERG (Homo sapiens, UniProt Q12809); assay: hERG inhibition; assay type: biochemical; conditions: for inhibition at 25 µM: hERG (% inhibition at 25 μM)
hERG, sequence (Q12809 whole entry): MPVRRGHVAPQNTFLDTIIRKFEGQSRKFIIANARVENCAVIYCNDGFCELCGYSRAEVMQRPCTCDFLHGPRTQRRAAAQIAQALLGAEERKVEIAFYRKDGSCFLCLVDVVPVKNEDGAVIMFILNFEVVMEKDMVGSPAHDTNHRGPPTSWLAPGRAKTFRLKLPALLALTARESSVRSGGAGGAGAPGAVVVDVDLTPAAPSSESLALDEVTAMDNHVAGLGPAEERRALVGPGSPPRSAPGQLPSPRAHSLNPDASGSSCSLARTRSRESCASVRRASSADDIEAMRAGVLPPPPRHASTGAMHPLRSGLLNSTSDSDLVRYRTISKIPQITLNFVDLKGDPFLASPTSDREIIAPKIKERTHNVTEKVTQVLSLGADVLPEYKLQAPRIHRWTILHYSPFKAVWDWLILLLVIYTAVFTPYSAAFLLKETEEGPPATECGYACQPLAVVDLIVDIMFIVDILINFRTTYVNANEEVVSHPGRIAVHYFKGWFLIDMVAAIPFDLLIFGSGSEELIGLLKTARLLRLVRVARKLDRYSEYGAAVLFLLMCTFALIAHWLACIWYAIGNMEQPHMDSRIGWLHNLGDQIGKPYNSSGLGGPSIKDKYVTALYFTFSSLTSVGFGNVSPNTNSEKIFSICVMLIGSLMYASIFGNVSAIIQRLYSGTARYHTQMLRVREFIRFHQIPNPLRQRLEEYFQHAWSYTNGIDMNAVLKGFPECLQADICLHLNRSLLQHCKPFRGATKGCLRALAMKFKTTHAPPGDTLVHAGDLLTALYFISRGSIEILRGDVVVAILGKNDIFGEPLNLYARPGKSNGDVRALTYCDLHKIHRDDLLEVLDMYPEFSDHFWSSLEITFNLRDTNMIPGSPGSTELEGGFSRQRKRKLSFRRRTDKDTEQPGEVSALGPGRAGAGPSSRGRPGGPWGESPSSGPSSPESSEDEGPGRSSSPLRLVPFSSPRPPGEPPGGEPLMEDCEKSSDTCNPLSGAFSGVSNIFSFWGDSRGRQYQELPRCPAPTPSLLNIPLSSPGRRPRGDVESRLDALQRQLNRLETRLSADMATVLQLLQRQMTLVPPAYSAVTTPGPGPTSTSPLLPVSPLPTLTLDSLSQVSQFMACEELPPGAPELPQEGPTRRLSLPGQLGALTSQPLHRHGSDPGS

[2] = Pharmacokinetic study, plasma and brain levels by LC-MS/MS; conditions: mice; for level at 1 h / level at 4 h: ABH, mouse, ip;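 as to all read-outs here: ABH mice, four per group, dosed intraperitoneally, plasma and brain taken at set times after euthanasia, drug levels quantified by LC-MS/MS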
[3] = Brain tissue binding (fraction unbound); assay type: in vitro ADME; conditions: read-out: Brain tissue (fu)
Source text: Table 1. Key data for lead optimization. SD, standard deviation of the mean; SE, standard error of the mean; fu, fraction unbound; ND, not determined. | column: Brain tissue (fu)

[4] = Hepatocyte clearance (human); assay type: in vitro ADME; conditions: human hepatocytes
[5] = Hepatocyte clearance (mouse); assay type: in vitro ADME; conditions: mouse hepatocytes
[6] = mouse, in vivo, ip, 10 mg/kg
[7] = mouse, in vivo, 10 mg/kg; for Cl_obs: ip
in vivo = conditions: ABH, mouse, ip, 10 mg/kg; for level at 24 h: Brain concentrations at 24 hours
[8] = Plasma protein binding (fraction unbound); assay type: in vitro ADME; conditions: read-out: Plasma protein (fu)
[9] = Table S3, 4-aza substituted quinolinium salts, fluorescence polarization, read-out: Ki (nM) CypA
[10] = Table S7, focused SAR set, read-out: CypD Ki
[11] = Table S7, focused SAR set, read-out: CypA Ki
[12] = Table S2, 4-oxa substituted and O-linked quinolinium salts, fluorescence polarization, read-out: Ki (nM), Cyclophilin A binding affinity

Cyclophilin A (CypA), sequence (P62937 whole entry): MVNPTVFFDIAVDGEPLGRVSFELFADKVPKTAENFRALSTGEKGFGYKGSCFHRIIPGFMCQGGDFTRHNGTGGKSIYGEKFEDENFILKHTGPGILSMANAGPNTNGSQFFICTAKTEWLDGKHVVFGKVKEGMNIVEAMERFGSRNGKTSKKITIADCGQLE

Ki (Cyclophilin A (CypA); [12]): 218 ± 57 nM
SMILES: CC[C@@H]1NC(=O)[C@H]([C@H](O)[C@H](C)CC=CCCCOc2cc[n+](CCCc3ccccc3)c3ccccc23)N(C)C(=O)[C@H](C(C)C)N(C)C(=O)[C@H](CC(C)C)N(C)C(=O)[C@H](CC(C)C)N(C)C(=O)[C@@H](C)NC(=O)[C@H](C)NC(=O)[C@H](CC(C)C)N(C)C(=O)[C@H](C(C)C)NC(=O)[C@H](CC(C)C)N(C)C(=O)CN(C)C1=O [TWH43]
CRC inhibition % [1]: 16.28%

Ki (Cyclophilin A (CypA); [12]): 158 ± 17 nM
SMILES: CC[C@@H]1NC(=O)[C@H]([C@H](O)[C@H](C)CC=CCCC[n+]2ccc(OCCCc3ccc(OC)cc3)c3ccccc32)N(C)C(=O)[C@H](C(C)C)N(C)C(=O)[C@H](CC(C)C)N(C)C(=O)[C@H](CC(C)C)N(C)C(=O)[C@@H](C)NC(=O)[C@H](C)NC(=O)[C@H](CC(C)C)N(C)C(=O)[C@H](C(C)C)NC(=O)[C@H](CC(C)C)N(C)C(=O)CN(C)C1=O [TWH44]
CRC inhibition % [1]: 16.95%

Ki (Cyclophilin A (CypA); [12]): 265 ± 111 nM
SMILES: CC[C@@H]1NC(=O)[C@H]([C@H](O)[C@H](C)C/C=C/CCCOc2cc[n+](CCc3ccccc3)c3ccccc23)N(C)C(=O)[C@H](C(C)C)N(C)C(=O)[C@H](CC(C)C)N(C)C(=O)[C@H](CC(C)C)N(C)C(=O)[C@@H](C)NC(=O)[C@H](C)NC(=O)[C@H](CC(C)C)N(C)C(=O)[C@H](C(C)C)NC(=O)[C@H](CC(C)C)N(C)C(=O)CN(C)C1=O [TWH46]

Ki (Cyclophilin A (CypA); [12]): 158 ± 43 nM
SMILES: CC[C@@H]1NC(=O)[C@H]([C@H](O)[C@H](C)CC=CCCC[n+]2ccc(OCc3ccccc3)c3ccccc32)N(C)C(=O)[C@H](C(C)C)N(C)C(=O)[C@H](CC(C)C)N(C)C(=O)[C@H](CC(C)C)N(C)C(=O)[C@@H](C)NC(=O)[C@H](C)NC(=O)[C@H](CC(C)C)N(C)C(=O)[C@H](C(C)C)NC(=O)[C@H](CC(C)C)N(C)C(=O)CN(C)C1=O [TWH53]
CRC inhibition % [1]: 18.46%

Ki (Cyclophilin A (CypA); [12]): 467 ± 85 nM
SMILES: CC[C@@H]1NC(=O)[C@H]([C@H](O)[C@H](C)CC=CCCC[n+]2ccc(OCCOc3ccccc3)c3ccccc32)N(C)C(=O)[C@H](C(C)C)N(C)C(=O)[C@H](CC(C)C)N(C)C(=O)[C@H](CC(C)C)N(C)C(=O)[C@@H](C)NC(=O)[C@H](C)NC(=O)[C@H](CC(C)C)N(C)C(=O)[C@H](C(C)C)NC(=O)[C@H](CC(C)C)N(C)C(=O)CN(C)C1=O [TWH68]
CRC inhibition % [1]: 17.71%

Further lines, the molecule ahead of its results:

SMILES: CC[C@@H]1NC(=O)[C@H]([C@H](O)[C@H](C)CC=CCCC[n+]2ccc(N(C)Cc3ccccc3)c3ccccc32)N(C)C(=O)[C@H](C(C)C)N(C)C(=O)[C@H](CC(C)C)N(C)C(=O)[C@H](CC(C)C)N(C)C(=O)[C@@H](C)NC(=O)[C@H](C)NC(=O)[C@H](CC(C)C)N(C)C(=O)[C@H](C(C)C)NC(=O)[C@H](CC(C)C)N(C)C(=O)CN(C)C1=O [JP1-028]
Ki (Cyclophilin A (CypA); [9]): 35 ± 3 nM

SMILES: CC[C@@H]1NC(=O)[C@H]([C@H](O)[C@H](C)CC=CCCC[n+]2ccc(NCCc3ccccc3)c3ccccc32)N(C)C(=O)[C@H](C(C)C)N(C)C(=O)[C@H](CC(C)C)N(C)C(=O)[C@H](CC(C)C)N(C)C(=O)[C@@H](C)NC(=O)[C@H](C)NC(=O)[C@H](CC(C)C)N(C)C(=O)[C@H](C(C)C)NC(=O)[C@H](CC(C)C)N(C)C(=O)CN(C)C1=O [JP1-037H]
Ki (Cyclophilin A (CypA); [9]): 17 ± 5 nM
CRC inhibition % [1]: 26.53%

SMILES: CC[C@@H]1NC(=O)[C@H]([C@H](O)[C@H](C)CC=CCCC[n+]2ccc(N(C)CCc3ccccc3)c3ccccc32)N(C)C(=O)[C@H](C(C)C)N(C)C(=O)[C@H](CC(C)C)N(C)C(=O)[C@H](CC(C)C)N(C)C(=O)[C@@H](C)NC(=O)[C@H](C)NC(=O)[C@H](CC(C)C)N(C)C(=O)[C@H](C(C)C)NC(=O)[C@H](CC(C)C)N(C)C(=O)CN(C)C1=O [JP1-037]
Ki (Cyclophilin A (CypA); [9]): 4.4 ± 2 nM
CRC inhibition % [1]: 20.61%

SMILES: CC[C@@H]1NC(=O)[C@H]([C@H](O)[C@H](C)C/C=C/CCC[n+]2ccc(NCCOc3ccccc3)c3ccccc32)N(C)C(=O)[C@H](C(C)C)N(C)C(=O)[C@H](CC(C)C)N(C)C(=O)[C@H](CC(C)C)N(C)C(=O)[C@@H](C)NC(=O)[C@H](C)NC(=O)[C@H](CC(C)C)N(C)C(=O)[C@H](C(C)C)NC(=O)[C@H](CC(C)C)N(C)C(=O)CN(C)C1=O [JP1-068]
Ki (Cyclophilin A (CypA); [9]): 10 nM
Ki (CypD; Table S3, fluorescence polarization, biotinylated-CsA probe, read-out: Ki (nM) CypD): 38.1 nM
IC50 (hERG): 1000 to 2000 nM
level at 1 h ([2]; brain, Brain ng/mL, 1 h): 110 ng/mL
level at 4 h ([2]; brain, Brain ng/mL): 76 ng/mL
level at 1 h ([2]; plasma, Plasma (ng/mL), 1 h): 6410 ng/mL
level at 4 h ([2]; plasma, Plasma (ng/mL)): 6250 ng/mL
Brain ([2]; 1 h): 110 ng/mL

SMILES: CC[C@@H]1NC(=O)[C@H]([C@H](O)[C@H](C)CC=CCCC[n+]2ccc(N3CCCC3)c3ccc(C(F)(F)F)cc32)N(C)C(=O)[C@H](C(C)C)N(C)C(=O)[C@H](CC(C)C)N(C)C(=O)[C@H](CC(C)C)N(C)C(=O)[C@@H](C)NC(=O)[C@H](C)NC(=O)[C@H](CC(C)C)N(C)C(=O)[C@H](C(C)C)NC(=O)[C@H](CC(C)C)N(C)C(=O)CN(C)C1=O [JP1-140]
Ki (CypD; [10]): 76 ± 8 nM

SMILES: CC[C@@H]1NC(=O)[C@H]([C@H](O)[C@H](C)C/C=C/CCC[n+]2ccc(N3CCOCC3)c3ccccc32)N(C)C(=O)[C@H](C(C)C)N(C)C(=O)[C@H](CC(C)C)N(C)C(=O)[C@H](CC(C)C)N(C)C(=O)[C@@H](C)NC(=O)[C@H](C)NC(=O)[C@H](CC(C)C)N(C)C(=O)[C@H](C(C)C)NC(=O)[C@H](CC(C)C)N(C)C(=O)CN(C)C1=O [JP1-141]
Ki (Cyclophilin A (CypA); [11]): 29 nM
hERG (% inhibition at 25 μM) (hERG; 25 μM): 63.9%
inhibition at 25 µM (hERG; 25 μM): 65%
fraction unbound [3]: 0.01
hepatocyte CLint [4]: 3.62 µL/min/1e6 cells
hepatocyte CLint [5]: 3.59 µL/min/1e6 cells
AUC(0-inf) [6]: 105000 ng·h/mL
AUC(0-t) [6]: 103000 ng·h/mL
half-life [6]: 242 min
Toxicity in the pharmacokinetic experiment [7]: some toxicity
Cl_obs [7]: 9.57 × 10^−05 (mg/kg)/(ng/ml).hour
level at time molar at 24 h (in vivo): 642 nM
level at 24 h (in vivo): 927 ng/mL

SMILES: CC[C@@H]1NC(=O)[C@H]([C@H](O)[C@H](C)CC=CCCC[n+]2ccc(N3CCCC3)c3ccccc32)N(C)C(=O)[C@H](C(C)C)N(C)C(=O)[C@H](CC(C)C)N(C)C(=O)[C@H](CC(C)C)N(C)C(=O)[C@@H](C)NC(=O)[C@H](C)NC(=O)[C@H](CC(C)C)N(C)C(=O)[C@H](C(C)C)NC(=O)[C@H](CC(C)C)N(C)C(=O)CN(C)C1=O [JP1-159]
Ki (Cyclophilin A (CypA); [11]): 104 nM

SMILES: CC[C@@H]1NC(=O)[C@H]([C@H](O)[C@H](C)C/C=C/CCC[n+]2ccc(N3CCCCC3)c3ccccc32)N(C)C(=O)[C@H](C(C)C)N(C)C(=O)[C@H](CC(C)C)N(C)C(=O)[C@H](CC(C)C)N(C)C(=O)[C@@H](C)NC(=O)[C@H](C)NC(=O)[C@H](CC(C)C)N(C)C(=O)[C@H](C(C)C)NC(=O)[C@H](CC(C)C)N(C)C(=O)CN(C)C1=O [JP1-166]
Ki (Cyclophilin A (CypA); [11]): 31 ± 3 nM
inhibition at 25 µM (hERG; 25 μM): 31.4%
fraction unbound [8]: 0.43
hepatocyte CLint [4]: 8.01 µL/min/1e6 cells
hepatocyte CLint [5]: 9.47 µL/min/1e6 cells
AUC(0-inf) [6]: 59900 ng·h/mL
AUC(0-t) [6]: 55000 ng·h/mL
half-life [6]: 405 min
Cl_obs [7]: 1.67 × 10^−04 (mg/kg)/(ng/ml).hour
level at time molar at 24 h (in vivo): 86 nM
level at 24 h (in vivo): 124 ng/mL

SMILES: CC[C@@H]1NC(=O)[C@H]([C@H](O)[C@H](C)C/C=C/CCC[n+]2ccc(N(C)C)c3ccccc32)N(C)C(=O)[C@H](C(C)C)N(C)C(=O)[C@H](CC(C)C)N(C)C(=O)[C@H](CC(C)C)N(C)C(=O)[C@@H](C)NC(=O)[C@H](C)NC(=O)[C@H](CC(C)C)N(C)C(=O)[C@H](C(C)C)NC(=O)[C@H](CC(C)C)N(C)C(=O)CN(C)C1=O [JP1-180]
Ki (CypD; [10]): 77 ± 46 nM
inhibition at 25 µM (hERG; 25 μM): 9.75%
fraction unbound [8]: 0.17
hepatocyte CLint [4]: 4.65 µL/min/1e6 cells
hepatocyte CLint [5]: 4.07 µL/min/1e6 cells
AUC(0-inf) [6]: 62100 ng·h/mL
AUC(0-t) [6]: 59300 ng·h/mL
half-life [6]: 304 min
Cl_obs [7]: 1.61 × 10^−04 (mg/kg)/(ng/ml).hour
level at time molar at 24 h (in vivo): 142 nM
level at 24 h (in vivo): 196 ng/mL

SMILES: CC[C@@H]1NC(=O)[C@H]([C@H](O)[C@H](C)C/C=C/CCC[n+]2cccc3ccccc32)N(C)C(=O)[C@H](C(C)C)N(C)C(=O)[C@H](CC(C)C)N(C)C(=O)[C@H](CC(C)C)N(C)C(=O)[C@@H](C)NC(=O)[C@H](C)NC(=O)[C@H](CC(C)C)N(C)C(=O)[C@H](C(C)C)NC(=O)[C@H](CC(C)C)N(C)C(=O)CN(C)C1=O [JW47, reference compound]
level at 4 h ([2]; plasma, Plasma (ng/mL)): 4900 ng/mL

SMILES: CC[C@@H]1NC(=O)[C@H]([C@H](O)[C@H](C)CC=CCCC[n+]2ccc(OCCc3ccccc3)c3ccccc32)N(C)C(=O)[C@H](C(C)C)N(C)C(=O)[C@H](CC(C)C)N(C)C(=O)[C@H](CC(C)C)N(C)C(=O)[C@@H](C)NC(=O)[C@H](C)NC(=O)[C@H](CC(C)C)N(C)C(=O)[C@H](C(C)C)NC(=O)[C@H](CC(C)C)N(C)C(=O)CN(C)C1=O [TWH30]
Ki (Cyclophilin A (CypA); [12]): 267 ± 16 nM
CRC inhibition % [1]: 27.89%
